# According to patent US9833497B2, “Human originated EGF domain proteins and use of the same” (CHENGDU SOURCEBIO LIMITED-LIABILITY COMPANY, priority 2013, dated 2017):
# Experiments:
# Assay type in all cases: cell-based
# Enterobacter cloacae = experiment: MIC against Gram-negative bacteria: Enterobacter cloacae; conditions: 5×10^5 CFU/mL
# Procedure, shortened: (§1)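 MIC, the lowest recombinant protein concentration giving no bacterial growth, found by two-fold serial dilution of human EGF-domain proteins in triplicate. Inoculum 5×10^5 CFU/mL in LB from cultures at McFarland 0.5; plates incubated at 37° C, 175 rpm shaking.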
# Proteus vulgaris = experiment: MIC against Gram-negative bacteria: Proteus vulgaris; conditions: 5×10^5 CFU/mL
# Procedure, shortened: as §1
# Moraxella catarrhalis = experiment: MIC against Gram-negative bacteria: Moraxella catarrhalis; conditions: 5×10^5 CFU/mL
# Procedure, shortened: as §1
# Klebsiella pneumonia = experiment: MIC against Gram-negative bacteria: Klebsiella pneumonia; conditions: 5×10^5 CFU/mL
# Procedure, shortened: as §1
# Aeromonas hydrophila = experiment: MIC against Gram-negative bacteria: Aeromonas hydrophila; conditions: 5×10^5 CFU/mL
# Procedure, shortened: as §1
# Pseudomonas aeruginosa = experiment: MIC against Gram-negative bacteria: Pseudomonas aeruginosa; conditions: 5×10^5 CFU/mL
# Procedure, shortened: as §1
# E. coli BL21 = experiment: MIC against Gram-negative bacteria: E. coli BL21; conditions: 5×10^5 CFU/mL
# Procedure, shortened: as §1
# Serratia marcescens = experiment: MIC against Gram-negative bacteria: Serratia marcescens; conditions: 5×10^5 CFU/mL
# Procedure, shortened: as §1
# Citrobacter diversus = experiment: MIC against Gram-negative bacteria: Citrobacter diversus; conditions: 5×10^5 CFU/mL
# Procedure, shortened: as §1
# Proteus mirabilis = experiment: MIC against Gram-negative bacteria: Proteus mirabilis; conditions: 5×10^5 CFU/mL
# Procedure, shortened: as §1
# E. coli DH5α = experiment: Antibacterial activity: MIC and growth curve against E. coli DH5α in 96-well plate; conditions: minimal inhibitory concentration against E. coli DH5α; 96-well plate, 5×10^5 CFU/mL, 37° C., judged after 8 h
# Procedure, shortened: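 Log-phase bacteria (OD600 ~0.5) resuspended in LB at 5×10^5 CFU/mL, exposed to recombinant protein at 50, 25, 12.5 μg/mL final in triplicate, 37 °C shaking at 175 rpm. OD600 read every 30 min; MIC is lowest concentration showing no growth.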
# [1] = E. coli BL21, 10 h cultivation at 37° C.
# [2] = 10 h cultivation at 37° C., two-fold serial dilution
substance,measurement,setting,value
PRT507 (CICYGHARACPLDPATNKSRCECEHNTCGDSCDQCCPGFHQKPWRAGTFLTKTECEA; listed as Homo sapiens),MIC against E. cloacae,"Enterobacter cloacae; 96-well plate, 37° C., 10 h",12.5 µg/mL
same,MIC against P. vulgaris,"Proteus vulgaris; 96-well plate, 37° C., 10 h",50 µg/mL
same,MIC against M. catarrhalis,"Moraxella catarrhalis; 96-well plate, 37° C., 10 h",50 µg/mL
same,MIC against K. pneumonia,"Klebsiella pneumonia; 96-well plate, 37° C., 10 h",50 µg/mL
same,MIC against A. hydrophila,"Aeromonas hydrophila; 96-well plate, 37° C., 10 h",50 µg/mL
same,MIC against P. aeruginosa,"Pseudomonas aeruginosa; 96-well plate, 37° C., 10 h",12.5 µg/mL
same,MIC against E. coli BL21,"E. coli BL21; 96-well plate, 37° C., 10 h",50 µg/mL
same,MIC against S. marcescens,"Serratia marcescens; 96-well plate, 37° C., 10 h",25 µg/mL
same,MIC against C. diversus,"Citrobacter diversus; 96-well plate, 37° C., 10 h",12.5 µg/mL
same,MIC against P. mirabilis,"Proteus mirabilis; 96-well plate, 37° C., 10 h",12.5 µg/mL
same,MIC,E. coli DH5α,12.5 µg/mL
PRT840 (GSARCGSGGPGSCPVPQECVPQDGAAGAGLCRCPQGWAGPHCR; listed as Homo sapiens),MIC (μg/mL) E. cloacae,"Enterobacter cloacae; E. cloacae, 10 h cultivation at 37° C.",12.5 µg/mL
same,MIC (μg/mL) P. vulgaris,"Proteus vulgaris; P. vulgaris, 10 h cultivation at 37° C.",25 µg/mL
same,MIC (μg/mL) M. catarrhalis,"Moraxella catarrhalis; M. catarrhalis, 10 h cultivation at 37° C.",25 µg/mL
same,MIC (μg/mL) K. pneumonia,"Klebsiella pneumonia; K. pneumonia, 10 h cultivation at 37° C.",25 µg/mL
same,MIC (μg/mL) A. hydrophila,"Aeromonas hydrophila; A. hydrophila, 10 h cultivation at 37° C.",25 µg/mL
same,MIC (μg/mL) P. aeruginosa,"Pseudomonas aeruginosa; P. aeruginosa, 10 h cultivation at 37° C.",25 µg/mL
same,MIC (μg/mL) E. coli BL21,E. coli BL21; [1],12.5 µg/mL
same,MIC (μg/mL) S. marcescens,"Serratia marcescens; S. marcescens, 10 h cultivation at 37° C.",25 µg/mL
same,MIC (μg/mL) C. diversus,"Citrobacter diversus; C. diversus, 10 h cultivation at 37° C.",12.5 µg/mL
same,MIC (μg/mL) P. mirabilis,"Proteus mirabilis; P. mirabilis, 10 h cultivation at 37° C.",12.5 µg/mL
same,MIC,E. coli DH5α,25 µg/mL
PRT513 (CECDPYGSLPVPCDPVTGFCTCRPGATGRKCDGCKHWHAREGWECVF; listed as Homo sapiens),MIC against E. cloacae,"Enterobacter cloacae; 96-well plate, 37° C., 10 h",25 µg/mL
same,MIC against P. vulgaris,"Proteus vulgaris; 96-well plate, 37° C., 10 h",12.5 µg/mL
same,MIC against M. catarrhalis,"Moraxella catarrhalis; 96-well plate, 37° C., 10 h",12.5 µg/mL
same,MIC against K. pneumonia,"Klebsiella pneumonia; 96-well plate, 37° C., 10 h",12.5 µg/mL
same,MIC against A. hydrophila,"Aeromonas hydrophila; 96-well plate, 37° C., 10 h",50 µg/mL
same,MIC against P. aeruginosa,"Pseudomonas aeruginosa; 96-well plate, 37° C., 10 h",50 µg/mL
same,MIC against E. coli BL21,"E. coli BL21; 96-well plate, 37° C., 10 h",12.5 µg/mL
same,MIC against S. marcescens,"Serratia marcescens; 96-well plate, 37° C., 10 h",12.5 µg/mL
same,MIC against C. diversus,"Citrobacter diversus; 96-well plate, 37° C., 10 h",25 µg/mL
same,MIC against P. mirabilis,"Proteus mirabilis; 96-well plate, 37° C., 10 h",50 µg/mL
same,MIC,E. coli DH5α,50 µg/mL
PRT707 (GKTVCEDFCQNGGTCIVTAGNQPYCHCQPEYTGDRCQ; listed as Homo sapiens),MIC E. cloacae,"Enterobacter cloacae; 96-well plate, 37° C., 10 h",12.5 µg/mL
same,MIC P. vulgaris,"Proteus vulgaris; 96-well plate, 37° C., 10 h",25 µg/mL
same,MIC M. catarrhalis,"Moraxella catarrhalis; 96-well plate, 37° C., 10 h",12.5 µg/mL
same,MIC K. pneumonia,"Klebsiella pneumonia; 96-well plate, 37° C., 10 h",12.5 µg/mL
same,MIC A. hydrophila,"Aeromonas hydrophila; 96-well plate, 37° C., 10 h",25 µg/mL
same,MIC P. aeruginosa,"Pseudomonas aeruginosa; 96-well plate, 37° C., 10 h",50 µg/mL
same,MIC E. coli BL21,"E. coli BL21; 96-well plate, 37° C., 10 h",25 µg/mL
same,MIC S. marcescens,"Serratia marcescens; 96-well plate, 37° C., 10 h",12.5 µg/mL
same,MIC C. diversus,"Citrobacter diversus; 96-well plate, 37° C., 10 h",12.5 µg/mL
same,MIC P. mirabilis,"Proteus mirabilis; 96-well plate, 37° C., 10 h",12.5 µg/mL
same,MIC,E. coli DH5α,50 µg/mL
PRT1292 (NVDDCEDNDCENNSTCVDGINNYTCLCPPEYTGELCE; listed as Homo sapiens),MIC against E. cloacae,"Enterobacter cloacae; Enterobacter cloacae, 96-well plate, 37° C., 10 h",50 µg/mL
same,MIC against P. vulgaris,"Proteus vulgaris; Proteus vulgaris, 96-well plate, 37° C., 10 h",50 µg/mL
same,MIC against M. catarrhalis,"Moraxella catarrhalis; Moraxella catarrhalis, 96-well plate, 37° C., 10 h",50 µg/mL
same,MIC against K. pneumonia,"Klebsiella pneumonia; Klebsiella pneumonia, 96-well plate, 37° C., 10 h",12.5 µg/mL
same,MIC against A. hydrophila,"Aeromonas hydrophila; Aeromonas hydrophila, 96-well plate, 37° C., 10 h",25 µg/mL
same,MIC against P. aeruginosa,"Pseudomonas aeruginosa; Pseudomonas aeruginosa, 96-well plate, 37° C., 10 h",12.5 µg/mL
same,MIC against E. coli BL21,"E. coli BL21; E. coli BL21, 96-well plate, 37° C., 10 h",12.5 µg/mL
same,MIC against S. marcescens,"Serratia marcescens; Serratia marcescens, 96-well plate, 37° C., 10 h",12.5 µg/mL
same,MIC against C. diversus,"Citrobacter diversus; Citrobacter diversus, 96-well plate, 37° C., 10 h",12.5 µg/mL
same,MIC against P. mirabilis,"Proteus mirabilis; Proteus mirabilis, 96-well plate, 37° C., 10 h",12.5 µg/mL
same,MIC,E. coli DH5α,12.5 µg/mL
PRT1141 (EINECSSEPCKNNGTCVDLTNRFFCNCEPEYHGPFCE; listed as Homo sapiens),MIC E. cloacae,Enterobacter cloacae; [2],50 µg/mL
same,MIC P. vulgaris,Proteus vulgaris; [2],12.5 µg/mL
same,MIC M. catarrhalis,Moraxella catarrhalis; [2],50 µg/mL
same,MIC K. pneumonia,Klebsiella pneumonia; [2],12.5 µg/mL
same,MIC A. hydrophila,Aeromonas hydrophila; [2],12.5 µg/mL
same,MIC P. aeruginosa,Pseudomonas aeruginosa; [2],50 µg/mL
same,MIC E. coli BL21,E. coli BL21; [2],12.5 µg/mL
same,MIC S. marcescens,Serratia marcescens; [2],25 µg/mL
same,MIC C. diversus,Citrobacter diversus; [2],25 µg/mL
same,MIC P. mirabilis,Proteus mirabilis; [2],25 µg/mL
same,MIC,E. coli DH5α,50 µg/mL
PRT1417 (RACHPRCAEHGTCRDGKCECSPGWNGEHCT; listed as Homo sapiens),MIC against E. cloacae,"Enterobacter cloacae; Enterobacter cloacae, 10 h cultivation at 37° C.",12.5 µg/mL
same,MIC against P. vulgaris,"Proteus vulgaris; Proteus vulgaris, 10 h cultivation at 37° C.",50 µg/mL
same,MIC against M. catarrhalis,"Moraxella catarrhalis; Moraxella catarrhalis, 10 h cultivation at 37° C.",12.5 µg/mL
same,MIC against K. pneumonia,"Klebsiella pneumonia; Klebsiella pneumonia, 10 h cultivation at 37° C.",50 µg/mL
same,MIC against A. hydrophila,"Aeromonas hydrophila; Aeromonas hydrophila, 10 h cultivation at 37° C.",50 µg/mL
same,MIC against P. aeruginosa,"Pseudomonas aeruginosa; Pseudomonas aeruginosa, 10 h cultivation at 37° C.",12.5 µg/mL
same,MIC against E. coli BL21,E. coli BL21; [1],12.5 µg/mL
same,MIC against S. marcescens,"Serratia marcescens; Serratia marcescens, 10 h cultivation at 37° C.",25 µg/mL
same,MIC against C. diversus,"Citrobacter diversus; Citrobacter diversus, 10 h cultivation at 37° C.",25 µg/mL
same,MIC against P. mirabilis,"Proteus mirabilis; Proteus mirabilis, 10 h cultivation at 37° C.",25 µg/mL
same,MIC,E. coli DH5α,25 µg/mL
